According to US8518973B2, “Compounds having 4-pyridylalkylthio group as a substituent” (Santen Pharmaceutical Co., Ltd., priority 2003, dated 2013):

What was measured:
[1] = test system: VEGF-induced HUVEC growth; experiment: VEGF-induced HUVEC growth reaction evaluation system (cell growth inhibitory action test); type: cell-based; conditions: Homo sapiens, 72 h, 20 μg/ml test compound solution added 5 μl per well (100 μl), VEGF solution 400 ng/ml 5 μl per well, three days, absorbance at 450 nm, read-out: Cell growth inhibition rate (%)
Procedure: Cell growth inhibitory action tests were carried out using a VEGF-induced HUVEC growth reaction evaluation system (HUVEC stands for human umbilical vein endothelial cells), which is one of widely-used methods of evaluating in vitro angiogenesis inhibitory effects of drugs.
As one of widely-used methods of evaluating angiogenesis inhibitory effects of drugs, a cell growth inhibitory action test using a VEGF-induced HUVEC growth reaction evaluation system was reported in Cancer Res., 59, 99-106(1999). According to the method described in the above-mentioned literature, cell growth inhibitory action tests of the present compounds were carried out, their cell growth inhibition rates were calculated, and angiogenesis inhibitory effects of the present compounds were evaluated using the obtained rates as indexes.
Each test compound was dissolved in dimethyl sulfoxide (hereinafter abbreviated as “DMSO”), and the obtained solution was diluted with commercially available phosphoric acid buffer solution (hereinafter abbreviated as “PBS”) to prepare a 20 μg/ml test compound solution.
HUVEC was suspended in a 0.5% fetal bovine serum (hereinafter abbreviated as “FBS”)-containing F12K medium to prepare a 2×10^4 cells/ml HUVEC suspension.
VEGF was dissolved in 0.1% bovine serum albumin-containing PBS, and the obtained solution was diluted with the 0.5% FBS-containing F12K medium to prepare a 400 ng/ml VEGF solution.
• 1) The HUVEC suspension was inoculated in each amount of 100 μl into each well of a 96-well plate coated with I type collagen (2×10^3 cells per well). • 2) One day after inoculation, the test compound solution was added in an amount of 5 μl per well. • 3) One hour after adding the test compound solution, the VEGF solution was added in an amount of 5 μl per well. • 4) Three days after adding the VEGF solution, cell counting kit-8(Dojin Chemical Co., Ltd.) was added in an amount of 10 μl per well. • 5) After three hours, the above-mentioned plate was attached to an absorptiometer (multi label counter ARVO), and absorbance at 450 nm of each well suspension (hereinafter referred to as “test compound suspension”) was measured. • 6) A test was carried out in the same manner as in 1) to 5) except that 1.0% DMSO was used instead of the test compound solution.
Incubation was carried out under conditions of 37° C., 5% carbon dioxide and 95% air in an incubator throughout the above-mentioned test steps.
Cell growth inhibition rates, which are indexes of angiogenesis inhibitory effects, were calculated by the following calculation equation.

[2] = test system: B16 cells; experiment: Tumor growth inhibitory action test using mouse cancer model (B16 cells); type: in vivo; conditions: po, 240 h; C57BL/6 mouse, B16 cells intradermally, 100 mg/kg/day orally once a day, ten days after injection, average of nine mice; read-out: Tumor tissue weight inhibition rate (%)
Procedure: Tumor proliferation inhibitory action tests of the present compounds were carried out using a mouse cancer model, which is one of widely-used methods of evaluating in vivo anticancer effects of drugs.
As one of widely-used methods of evaluating anticancer effects of drugs, a tumor growth inhibitory action test using mouse cancer models was reported in Cancer Res., 59, 5209-5218(1999). According to the method described in the above-mentioned literature, tumor growth inhibitory action tests of the present compounds were carried out, their tumor tissue weight inhibition rates were calculated, and anticancer effects of the present compounds were evaluated using the obtained rates as indexes.
A 1% aqueous methyl cellulose solution was added to each test compound to suspend it with a sonicator thereby to prepare a 10 mg/ml test compound suspension.
Physiological saline was added to B16 cells to prepare a 3.3×10^7 cells/ml B16 cell suspension.
Calculation of Tumor Tissue Weight Inhibition Rate
Tumor tissue weight inhibition rates (the average of nine mice per group), which are indexes of anticancer effects were calculated, from the following calculation equation.

[3] = test system: rat choroidal neovascularization model; experiment: Neovascularization incidence test using laser-induced rat choroidal neovascularization model; type: in vivo; conditions: po, 168 h; Brown Norway rat, krypton laser photocoagulation, 30 mg/kg/day orally once a day for seven days, ratio to vehicle administration group, average of three to four individuals and six to eight eyes; read-out: Ratio of neovascularization incidence rate (% of Control)
Procedure: Neovascularization incidence tests of the present compounds were carried out using a rat choroidal neovascularization model, which is one of widely-used methods of evaluating in vivo choroidal neovascularization inhibitory effects of drugs.
As one of widely-used methods of evaluating choroidal neovascularization inhibitory effects of drugs, a neovascularization incidence test using rat choroidal neovascularization models was reported in Graefe's Arch. Cli. Exp. Ophthalmol., 235, 313-319(1997). According to the method described in the above-mentioned literature, neovascularization incidence tests of the present compounds were carried out, ratios of neovascularization incidence rates of present compounds administration groups were calculated to a neovascularization incidence rate of vehicle administration group (control group), and choroidal neovascularization inhibitory effects of the present compounds were evaluated using the obtained ratios as indexes.
A 1% aqueous methyl cellulose solution was added to each test compound to suspend it thereby to prepare a 6 mg/10 ml test compound suspension.
• 1) A 7:1 mixed solution (1 ml/kg) of a 5% ketamine hydrochloride injection and a 2% xylazine hydrochloride injection was administered intramuscularly to rats (Brown Norway, male, eight weeks old, weight: 200 to 250 g) to anesthetize them systemically. • 2) A tropicamide-phenylephrine hydrochloride ophthalmic solution (trade name: Mydrin-P) was instilled into eyes to cause mydriasis, and then photocoagulation was performed in a Bruch's membrane of each rat using a krypton laser photocoagulation apparatus. The laser irradiation was carried out at eight spots per eye sparsely avoiding thick retinal vessels in a posterior section of ocular fundus and focusing on the retinal deep site. Photocoagulation conditions were adjusted to 100 μm of spot size, […] of output and 0.1 sec. of coagulation time. • 3) After the photocoagulation, the ocular fundus was photographed to confirm photocoagulation (laser irradiation) sites. […] Method of Evaluation • 1) Seven days after the photocoagulation, 0.1 ml of a 10% aqueous fluorescein solution was injected into a tail vein of the rat, and fluorescein fundus photography was performed. • 2) Next, in the fluorescein fundus photography, a spot where fluorescence leak was not observed was judged as negative, and a spot where fluorescence leak was observed was judged as positive. Photocoagulation sites where a little fluorescence leak was observed were judged as positive when two sites are present. • 3) Neovascularization incidence rates were calculated according to the calculation equation 1. Ratios of the neovascularization incidence rates of the test compound administration groups to that of the vehicle administration group were calculated according to the calculation equation 2 from neovascularization incidence rates of respective administration groups.
The values are the average of three to four individuals and six to eight eyes.

[4] = test system: rat adjuvant arthritis model; experiment: Paw edema inhibitory action test using rat adjuvant arthritis model; type: in vivo; conditions: po, 504 h; Lewis rat, adjuvant-untreated (secondary inflammation) paw, 10 mg/kg/day orally once a day, 21 days after, average of eight rats; read-out: Paw edema inhibition rate (%)
Procedure: Paw edema inhibitory action tests of the present compounds were carried out using a rat adjuvant arthritis model, which is one of widely-used methods of evaluating in vivo antiarthritis effects of drugs.
As one of widely-used methods of evaluating antiarthritic effects of drugs, a paw edema inhibitory action test using rat adjuvant arthritis models is known. Paw edema inhibitory action tests of the present compounds were carried out, their paw edema inhibition rates were calculated, and antiarthritic effects of the present compounds were evaluated using the obtained rates as indexes.
A 1% aqueous methyl cellulose solution was added to each test compound to suspend it thereby to prepare a 2 mg/ml test compound suspension.
Liquid paraffin was added to Mycobacterium-butyricum to suspend it to prepare 6 mg/ml adjuvant.
Each paw edema inhibition rate of paw edema in an adjuvant-untreated paw (secondary inflammation paw) in each test compound administration group was calculated to paw edema in a secondary inflammation paw in a control group, and antiarthritic effects of the present compounds were evaluated using the obtained rates as indexes.
Paw edema rates were calculated from the following calculation equation 1, and then paw edema inhibition rates (the average of eight rats per group), which are indexes of the antiarthritic effects, were calculated from the calculation equation 2.

SMILES	inhibition at 20 µg/mL (stock) [1] [%]	inhibition in vivo at 100 mg/kg/day [2] [%]	response vs control in vivo at 30 mg/kg/day [3] [%]	inhibition in vivo at 10 mg/kg/day [4] [%]
Cc1cc(NC(=O)c2ccccc2SCc2ccncc2)ccc1Cl [1-99, N-(4-Chloro-3-methylphenyl)-2-(4-pyridylmethylthio)benzamide]	100	64	–	–
O=C(Nc1ccc2cn[nH]c2c1)c1cccnc1SCc1ccncc1 [1-296, N-(Indazol-6-yl)-2-(4-pyridylmethylthio)pyridine-3-carboxamide]	100	71	24	–
Cc1cc(C)cc(NC(=O)c2cccnc2SCc2ccnc(Br)c2)c1 [1-230, 2-(2-Bromopyridin-4-ylmethylthio)-N-(3,5-dimethylphenyl)pyridine-3-carboxamide]	100	66	–	–
O=C(Nc1ccc(SC(F)(F)F)cc1)c1cccnc1SCc1ccncc1 [1-158, 2-(4-Pyridylmethylthio)-N-(4-trifluoromethylthiophenyl)pyridine-3-carboxamide]	100	76	–	22
O=C(Nc1ccc2c(c1)CCC2)c1cccnc1SCc1cc[n+]([O-])cc1 [4-8, N-(5-Indanyl)-2-(1-oxopyridin-4-ylmethylthio)pyridine-3-carboxamide]	98	80	–	–
O=C(Nc1ccc(OC(F)(F)F)cc1)c1cccnc1SCc1cc[n+]([O-])cc1 [4-9, 2-(1-Oxopyridin-4-ylmethylthio)-N-(4-trifluoromethoxyphenyl)pyridine-3-carboxamide]	100	77	–	–
Cc1cc(C)cc(NC(=O)c2cccnc2SCc2cc[n+]([O-])cc2)c1 [4-4, N-(3,5-Dimethylphenyl)-2-(1-oxopyridin-4-ylmethylthio)pyridine-3-carboxamide]	100	77	26	21
CC(C)(C)c1ccc(NC(=O)c2cccnc2SCc2ccncc2)cc1 [1-51, N-(4-tert-Butylphenyl)-2-(4-pyridylmethylthio)pyridine-3-carboxamide]	98	59	–	–
O=C(Nc1ccc(OC(F)(F)F)c(Cl)c1)c1cccnc1SCc1ccncc1 [1-137, N-(3-Chloro-4-trifluoromethoxyphenyl)-2-(4-pyridylmethylthio)pyridine-3-carboxamide]	100	66	65	39
O=C(Nc1ccc2[nH]ncc2c1)c1cccnc1SCc1ccncc1 [1-23, N-(Indazol-5-yl)-2-(4-pyridylmethylthio)pyridine-3-carboxamide]	100	57	26	–
O=C(Nc1ccc2c(c1)CCC2)c1cccnc1SCc1ccncc1 [1-136, N-(5-Indanyl)-2-(4-pyridylmethylthio)pyridine-3-carboxamide]	100	53	38	–
O=C(Nc1ccc(OC(F)(F)F)c(Cl)c1)c1cccnc1SCc1cc[n+]([O-])cc1 [4-11, N-(3-Chloro-4-trifluoromethoxyphenyl)-2-(1-oxopyridin-4-ylmethylthio)-pyridine-3-carboxamide]	100	62	–	–
O=C(Nc1cc2ccccc2cn1)c1cccnc1SCc1ccncc1 [1-22, N-(3-Isoquinolyl)-2-(4-pyridylmethylthio)pyridine-3-carboxamide]	100	45	–	27
O=C(Nc1ccc2ncccc2c1)c1cccnc1SCc1ccncc1 [1-21, 2-(4-Pyridylmethylthio)-N-(6-quinolyl)pyridine-3-carboxamide]	99	65	15	–
